Results: the supplement of paper PMC5412046
Counter-ions that a name gives are not always drawn.

Columns and labels:
SB.mhdgc-1 [1] = assay: viability at highest tested concentration (MAXR) relative to DMSO; higher = less cytotoxic; details: SB.mhdgc-1 (hereditary c.1380delA CDH1 gastric cancer)
Outline: (§1)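 Compound in DMSO was pinned (23 nL) at 11 threefold-diluted concentrations into wells containing 500 patient-derived gastric cancer cells, hereditary or sporadic, in 5 μL medium per 1536 well. Cells were incubated for 48 h, then exposed to CellTiter-Glo for 30 min at room temperature. Luminescence was measured on a ViewLux. The values are viability normalised to DMSO, either at the highest concentration or as trapezoidal area under the curve.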

SB.msgc-1 [2] = assay: as above; details: SB.msgc-1 (sporadic gastric cancer)
Outline: as §1

SB.mhdgc-1 [3] = assay: area under the dose-response curve of % viability (trapezoidal, 11 doses) (% viability x log10 concentration); higher = less cytotoxic; details: SB.mhdgc-1 (hereditary c.1380delA CDH1 gastric cancer)
Outline: as §1

SB.msgc-1 [4] = assay: as above; details: SB.msgc-1 (sporadic gastric cancer)
Outline: as §1

Structure (SMILES) | viability (SB.mhdgc-1 [1]) [%] | viability (SB.msgc-1 [2]) [%] | area under the dose-response curve (SB.mhdgc-1 [3]) | area under the dose-response curve (SB.msgc-1 [4])
CSCC[C@H](NC(=O)[C@H](Cc1c[nH]c2ccccc12)NC(=O)CCNC(=O)OC(C)(C)C)C(=O)N[C@@H](CC(=O)O)C(=O)N[C@@H](Cc1ccccc1)C(N)=O [Pentagastrin] (top concentration 46.0829 µM) | 52.5 | 34.2 | 457 | 488
Cc1cc2c(F)c(Oc3ncnn4cc(OC[C@@H](C)O)c(C)c34)ccc2[nH]1 [Brivanib] (top concentration 46.0829 µM) | 20.9 | 58.9 | 504 | 499
NC(=O)N1CCC(CC(=O)N2CCC([C@H]3c4ncc(Br)cc4CCc4cc(Cl)cc(Br)c43)CC2)CC1 [Lonafarnib] (top concentration 46.0829 µM) | 0.687 | -0.76 | 518 | 406
CN1CCN(CC1)C2=CC3=C([NH]C(=N3)C/4=C(\N)C5=C(F)C=CC=C5NC4=O)C=C2 [Dovitinib] (top concentration 46.0829 µM) | 17 | 48.2 | 543 | 481
O=C/1NC(=O)C(=C1C2=CN=C3C=CC=C[N]23)/C4=C[N]5CCN(CC6=C5C4=CC=C6)C(=O)N7CCOCC7 [GSK3 Inhibitor] (top concentration 46.0829 µM) | 32.5 | 41.1 | 391 | 442
Cc1cc(Nc2cc(N3CCN(C)CC3)nc(/C=C/c3ccccc3)n2)n[nH]1 (top concentration 92.1659 µM) | 2.71 | 32.1 | 440 | 519
Clc1ccc(C(c2ccc(Cl)cc2)[n+]2ccn(CC(OCc3ccc(Cl)cc3Cl)c3ccc(Cl)cc3Cl)c2)cc1 (stereo not drawn) [Calmidazolium chloride] (top concentration 46.0829 µM) | 0.451 | 0.432 | 396 | 534
Cc1cc(-c2ccc(CC(=O)Nc3ccc(-c4cccnc4)cc3)cc2)ccn1 [Wnt-C59] (top concentration 46.0829 µM) | 49.6 | 49 | 497 | 501
CC1=CC=C2\N=C/3N(CC[C@@]3(O)C(=O)C2=C1)C4=CC=CC=C4 [(-)-Blebbistatin] (top concentration 46.0829 µM) | 38.7 | 78.3 | 392 | 477
C[C@@H](Oc1cc(-c2cnn(C3CCNCC3)c2)cnc1N)c1c(Cl)ccc(F)c1Cl [Crizotinib] (top concentration 46.0829 µM) | 0.758 | 3.37 | 504 | 484
CCN1CCC(n2cc(CNc3cc(Cl)c4ncc(C#N)c(Nc5ccc(F)c(Cl)c5)c4c3)nn2)CC1 [Wyeth Cot inhibitor-2] (top concentration 46.0829 µM) | 1.55 | 29.5 | 389 | 476
ClC1=CC\2=C(NC(=O)\C(=C2N[C@@H]3CN4CCC3CC4)C5=NC6=C([NH]5)C=CC=C6)C=C1 [CHIR-124] (top concentration 46.0829 µM) | 5.59 | 13.9 | 340 | 355
C[C@]12COC(=O)C[C@@H]1CC[C@@H]1[C@@H]2CC[C@@]2(C)[C@H]1CC[C@]2(C)O [Oxandrolone] (top concentration 46.0829 µM) | 85.3 | 102 | 542 | 542
COc1cc2cc(c1Cl)N(C)C(=O)C[C@H](OC(=O)C(C)C)[C@]1(C)O[C@@H]1[C@H](C)[C@@H]1C[C@@](O)(NC(=O)O1)[C@H](OC)/C=C/C=C(\C)C2 [Ansamitocin P3] (top concentration 46.0829 µM) | 40.3 | 40.8 | 223 | 207
Cc1ccccc1C(C(=O)NC1CCCC1)N(C(=O)Cn1cnc2ccccc21)c1cccc(F)c1 (stereo not drawn) (top concentration 46.0829 µM) | 78.9 | 65.8 | 556 | 516
OC(Cn1cncn1)(Cn1cncn1)c1ccc(F)cc1F [Fluconazole] (top concentration 46.0829 µM) | 118 | 106 | 573 | 596

Structure (SMILES) | viability (SB.mhdgc-1 [1]) [%] | viability (SB.msgc-1 [2]) [%] | area under the dose-response curve (SB.mhdgc-1 [3]) | area under the dose-response curve (SB.msgc-1 [4])
O=C(Nc1ccccc1)Nc1ccc(-c2ccc(C(=O)[C@@H]3CCC[C@H]3C(=O)O)cc2)cc1 (top concentration 46.0829 µM) | 98.2 | 46.8 | 530 | 510
COC(=O)Nc1nc2cc(C(=O)c3ccccc3)ccc2[nH]1 [Mebendazole] (top concentration 46.0829 µM) | 29.2 | 33.2 | 391 | 434
O=C(c1ccc(F)cc1)C1CCN(CCn2c(=O)[nH]c3ccccc3c2=O)CC1 [Ketanserin] (top concentration 46.0829 µM) | 109 | 115 | 536 | 523
CN1CC(=O)N2[C@H](c3ccc4c(c3)OCO4)c3[nH]c4ccccc4c3C[C@@H]2C1=O [Tadalafil] (top concentration 46.0829 µM) | 107 | 25.6 | 549 | 280
OCCN1CCN(CCCN2c3ccccc3Sc3ccc(C(F)(F)F)cc32)CC1 [Fluphenazine hydrochloride] (top concentration 46.0829 µM) | 6.36 | 49.1 | 461 | 497
COc1cc2c(Oc3ccc4[nH]c(C)cc4c3F)ncnc2cc1OCCCN1CCCC1 [Cediranib] (top concentration 46.0829 µM) | 3.54 | 5.03 | 463 | 470
CC(C)(C)C(=O)OCOP(=O)(COCCn1cnc2c(N)ncnc21)OCOC(=O)C(C)(C)C [Adefovir dipivoxil] (top concentration 46.0829 µM) | 13.8 | 24.5 | 248 | 370
COc1ccc2c(c1OC)C(=O)O[C@H]2[C@H]1c2c(cc3c(c2OC)OCO3)CCN1C [Noscapine] (top concentration 46.0829 µM) | 31.9 | 45 | 418 | 392
CCOc1ccc(Nc2nc(-c3c(C)nc4ccccn34)cs2)cc1 [JK 184] (top concentration 46.0829 µM) | 56.3 | 41.6 | 514 | 390
Cc1cc(Nc2cc(NC(=O)c3c(Cl)cccc3Cl)ccn2)nc(N)n1 [RO495] (top concentration 46.0829 µM) | 58.6 | 50.6 | 421 | 374
Cc1cn2cc(C(=O)N(C)CCO)cc(N[C@@H]3CCOc4cccc(C)c43)c2n1 (top concentration 46.0829 µM) | 121 | 108 | 576 | 505
Cc1cc2c(C(C)C)c(O)c(O)c(C=O)c2c(O)c1-c1c(C)cc2c(C(C)C)c(O)c(O)c(C=O)c2c1O [(-)-Gossypol] (top concentration 46.0829 µM) | 18.3 | 18.3 | 537 | 495
CCC1=C[C@@H]2CN(C1)Cc1c([nH]c3ccccc13)[C@@](C(=O)OC)(c1cc3c(cc1OC)N(C)[C@H]1[C@@](O)(C(=O)OC)[C@H](OC(C)=O)[C@]4(CC)C=CCN5CC[C@]31[C@@H]54)C2 [Vinorelbine] (top concentration 46.0829 µM) | 15.2 | 43.5 | 264 | 347
COc1cc2c(cc1O)CCC1C2CC[C@@]2(C)C1CC[C@@H]2O (stereo partly drawn) [2-Methoxyestradiol] (top concentration 46.0829 µM) | 82.1 | 87 | 526 | 538
CC(C)[C@H](N)C(=O)OCCOC[N]1C=NC2=C1\N=C(N)/NC2=O [Valaciclovir] (top concentration 46.0829 µM) | 110 | 94.6 | 528 | 508
OC1CCC(Nc2ncc3nc(Nc4c(F)cc(F)cc4F)n([C@@H]4CCOC4)c3n2)CC1 (stereo partly drawn) (top concentration 46.0829 µM) | 92.7 | 97 | 505 | 502
